Assay results from patent US20080227638A1, “Use of abscisic acid to enhance growth control” (priority 2007, published 2008).

Legend:
Format in all cases: in vivo
creeping bentgrass = experiment: Golf course green creeping bentgrass height, ABA and trinexapac-ethyl (Example 4); conditions: 200 ppm ABA
Description: (§1) Field studies were conducted at the nursery green or the practice green at Countryside golf course (Mundelein, Ill.). Both greens were sand based and growing Penncross creeping bentgrass. Grass was managed with typical Illinois golf course management practices.
(§2) Chemical solutions were prepared with distilled water. Tween 20 (0.05% v/v) was used as an, adjuvant. Both trinexapac-ethyl (commercial product Primo Maxx, 11.3% active ingredient) and paclobutrazol (commercial product Trimmit 2SC, 22.3% active ingredient) were purchased from Syngenta Crop Protection Inc. (Greensboro, N.C.). Uniconazole-P (commercial product Sumagic, 0.55% active ingredient) was obtained from Valent U.S.A. Corporation (Walnut Creek, Calif.).
(§3) When treated with paclobutrazol or uniconazole-P, turfgrass received irrigation within 24 hours after application to flush chemicals to the root zone. After treatment, turfgrasses were arranged in a randomized complete block experimental design. Turfgrass quality, turfgrass height or clip fresh weight was measured on assigned dates. Turfgrass quality was visually rated on a 0-9 scale based on the color, uniformity and density of the grass with 0 as the worst and 9 as the best. Turfgrass height was measured as the distance between canopy surface and soil. Clips were collected from each plot; all plots were cut to a uniform height.
(§4) All experiments were randomized complete block experimental design. Data were analyzed by analysis of variance. Duncan's new multiple range tests at α=0.05 were used for mean separations.
(§5) Tween 20 (0.05% w/v) was included as an adjuvant.

Kentucky bluegrass = experiment: Greenhouse Kentucky bluegrass height and quality, ABA and trinexapac-ethyl (Example 1); conditions: 200 ppm ABA
Description: Greenhouse studies were conducted at the Research Farm of Valent BioSciences Corporation (Long Grove, Ill.). Grasses were grown in pots (18 cm in diameter and 18 cm in height) filled with Promix BX (available from Premier Horticulture Inc. Quakertown, Pa.). Grass was irrigated daily by an overhead irrigation system. The irrigation system was set up with multiple Tornado Mist Spray Heads (10 GPH at 40 PSI-Wetted diameter, NDS/Raindrip, Woodland Hills, Calif.). Spray heads were 1-meter apart from each other and 75 cm above grass canopy. Grass was cut with a scissor at 2.5 cm height and fertilizer (1 g/L all purpose fertilizer 20-20-20, available from The Scotts Company, Marysville, Ohio) was applied once per week.
as §2, §3, §4
Kentucky bluegrass sod (unknown variety) was purchased from Deak sod farms, Inc. (Union Grove, Wis.). Grass was grown in the greenhouse in pots (n=6 pots per treatment) for establishment before treatment. […] Tween 20 (0.05% w/v) was included as an adjuvant. Turfgrass canopy was not cut during the experimental period.

[1] = test system: tomato (variety: Rutgers); experiment: Tomato plant height, growth rate and leaf number (Example 9); conditions: for Leaf number: 15 days after treatment
Excerpt: (§6) Tomato (variety: Rutgers) seeds were sown in 18-cell flat filled with Promix PGX (available from Premier Horticulture Inc. Quakertown, Pa.) and grown for 3 weeks to allow for germination and initial growth. Plants were then transplanted into pots (18 cm in diameter and 18 cm in height), filled with Promix BX (available from Premier Horticulture Inc. Quakertown, Pa.), and grown for one week before the chemical treatment. Plants received daily irrigation and weekly fertilizer (1 g/L all purpose fertilizer 20-20-20, available from The Scotts Company, Marysville, Ohio).
(§7) During the chemical treatment, a 15 mL (2.5 mL/plant) solution was foliar sprayed on the tomato canopy. Leaf transpiration rates were measured using a LI-1600 Steady State Porometer (LI-Cor, Lincoln, Nebr.) at 1, 2, 3, 4, 7, 10 and 15 days after treatment. Leaf transpiration rate was normalized to the percentage of control plant to minimize the experimental errors caused by environmental factors. Plant height was measured at 0, 2, 4, 7, 10 and 15 days after treatment. Growth rate was calculated based on the changes of plant height in certain intervals. The plants were harvested and the leaf number was counted at 15 days after treatment.

[2] = test system: tomato (variety: Rutgers); experiment: Tomato leaf transpiration, porometer (Example 9)
Excerpt: as §6, §7

creeping bentgrass green = experiment: Soil moisture of creeping bentgrass green, ABA and trinexapac-ethyl (Example 8); conditions: 500 ppm ABA
Description: as §1, §2, §3, §4, §5

[3] = 250 ppm ABA, day 2 after treatment
[4] = 250 ppm ABA, day 4 after treatment
[5] = 250 ppm ABA, day 7 after treatment
[6] = 250 ppm ABA, day 10 after treatment
[7] = 250 ppm ABA, day 15 after treatment
[8] = 500 ppm ABA, day 2 after treatment
[9] = 500 ppm ABA, day 4 after treatment
[10] = 500 ppm ABA, day 7 after treatment
[11] = 500 ppm ABA, day 10 after treatment
[12] = 500 ppm ABA, day 15 after treatment
[13] = 1000 ppm ABA, day 2 after treatment
[14] = 1000 ppm ABA, day 4 after treatment
[15] = 1000 ppm ABA, day 7 after treatment
[16] = 1000 ppm ABA, day 10 after treatment
[17] = 1000 ppm ABA, day 15 after treatment
[18] = 2000 ppm ABA, day 2 after treatment
[19] = 2000 ppm ABA, day 4 after treatment
[20] = 2000 ppm ABA, day 7 after treatment
[21] = 2000 ppm ABA, day 10 after treatment
[22] = 2000 ppm ABA, day 15 after treatment

Substance S-abscisic acid [ABA] has a Turfgrass height (creeping bentgrass; 7 days after treatment) of 5.3 cm, a Turfgrass height (creeping bentgrass; 14 days after treatment) of 8.2 cm and a Turfgrass height (Kentucky bluegrass; 7 days after treatment) of 9.4 cm. It also gave a Turfgrass height (Kentucky bluegrass; 23 days after treatment) of 19.0 cm, a Leaf number ([1]; 250 ppm ABA) of 12.2 and a Plant height ([1]; 250 ppm ABA, day 0 after treatment) of 9.9 cm. It also gave a Growth rate [1, 3] of 1.5 cm/day, a Plant height [1, 3] of 12.8 cm and a Growth rate [1, 4] of 1.6 cm/day. For the same substance, the Plant height [1, 4] was 16.3 cm, the Growth rate [1, 5] was 2.7 cm/day and the Plant height [1, 5] was 28.5 cm. It also gave a Growth rate [1, 6] of 2.1 cm/day, a Plant height [1, 6] of 30.4 cm and a Growth rate [1, 7] of 2.3 cm/day. The Plant height [1, 7] was 45.5 cm, the Leaf number ([1]; 500 ppm ABA) was 12.0 and the Plant height ([1]; 500 ppm ABA, day 0 after treatment) was 10.1 cm. The Growth rate [1, 8] was 1.3 cm/day, the Plant height [1, 8] was 12.5 cm and the Growth rate [1, 9] was 1.6 cm/day. For the same substance, the Plant height [1, 9] was 16.3 cm, the Growth rate [1, 10] was 2.4 cm/day and the Plant height [1, 10] was 27.0 cm. It also gave a Growth rate [1, 11] of 2.0 cm/day, a Plant height [1, 11] of 29.6 cm and a Growth rate [1, 12] of 2.3 cm/day. For the same substance, the Plant height [1, 12] was 44.1 cm, the Leaf number ([1]; 1000 ppm ABA) was 12.0 and the Plant height ([1]; 1000 ppm ABA, day 0 after treatment) was 9.8 cm. It also gave a Growth rate [1, 13] of 1.0 cm/day, a Plant height [1, 13] of 11.7 cm and a Growth rate [1, 14] of 1.2 cm/day. The Plant height [1, 14] was 14.5 cm, the Growth rate [1, 15] was 2.2 cm/day and the Plant height [1, 15] was 25.3 cm. It also gave a Growth rate [1, 16] of 1.8 cm/day, a Plant height [1, 16] of 27.4 cm and a Growth rate [1, 17] of 2.0 cm/day. For the same substance, the Plant height [1, 17] was 41.6 cm, the Leaf number ([1]; 2000 ppm ABA) was 12.0 and the Plant height ([1]; 2000 ppm ABA, day 0 after treatment) was 9.8 cm. It also gave a Growth rate [1, 18] of 0.9 cm/day, a Plant height [1, 18] of 11.5 cm and a Growth rate [1, 19] of 1.3 cm/day. The Plant height [1, 19] was 14.9 cm, the Growth rate [1, 20] was 1.9 cm/day and the Plant height [1, 20] was 23.2 cm. The Growth rate [1, 21] was 1.6 cm/day, the Plant height [1, 21] was 25.8 cm and the Growth rate [1, 22] was 1.9 cm/day. The Plant height [1, 22] was 40.5 cm, the Transpiration ([2]; 250 ppm ABA, day 1 after treatment) was 87 % of control and the Transpiration [2, 3] was 86 % of control. For the same substance, the Transpiration ([2]; 250 ppm ABA, day 3 after treatment) was 91 % of control, the Transpiration [2, 4] was 95 % of control and the Transpiration [2, 5] was 99 % of control. The Transpiration [2, 6] was 98 % of control, the Transpiration [2, 7] was 99 % of control and the Transpiration ([2]; 500 ppm ABA, day 1 after treatment) was 78 % of control. For the same substance, the Transpiration [2, 8] was 78 % of control, the Transpiration ([2]; 500 ppm ABA, day 3 after treatment) was 84 % of control and the Transpiration [2, 9] was 88 % of control. For the same substance, the Transpiration [2, 10] was 98 % of control, the Transpiration [2, 11] was 99 % of control and the Transpiration [2, 12] was 99 % of control. The Transpiration ([2]; 1000 ppm ABA, day 1 after treatment) was 60 % of control, the Transpiration [2, 13] was 73 % of control and the Transpiration ([2]; 1000 ppm ABA, day 3 after treatment) was 76 % of control. For the same substance, the Transpiration [2, 14] was 84 % of control, the Transpiration [2, 15] was 93 % of control and the Transpiration [2, 16] was 99 % of control. The Transpiration [2, 17] was 97 % of control, the Transpiration ([2]; 2000 ppm ABA, day 1 after treatment) was 46 % of control and the Transpiration [2, 18] was 58 % of control. The Transpiration ([2]; 2000 ppm ABA, day 3 after treatment) was 70 % of control, the Transpiration [2, 19] was 76 % of control and the Transpiration [2, 20] was 85 % of control. The Transpiration [2, 21] was 95 % of control, the Transpiration [2, 22] was 100 % of control and the Soil moisture (creeping bentgrass green; 2 days after treatment) was 11.4%. The Soil moisture (creeping bentgrass green; 7 days after treatment) was 10.9%.
